Measured values from patent publication US20040152596A1, “Coated seed and process for coating a seed” (priority 2001, published 2004).

What was measured:
Tomato = details: for Emergence percentage: fertilizer 10% of seed weight, fixing agent 2% of seed weight
Description: (§1) A number of tests were carried out with the purpose of finding for various plant species the optimal fertilizer and the optimal fertilizer amount in terms of emergence. […] The fixing agent was used in an amount of 2% of the weight of the seeds. […] These percentages are % by weight, calculated from the seed weight.

[1] = fertilizer 4% of seed weight, fixing agent 2% of seed weight

Description for Barley: as §1
Description for Pea: A number of tests were carried out with the purpose of finding for various plant species the optimal fertilizer and the optimal fertilizer amount in terms of emergence. […] The fixing agent was used in an amount of 2% of the weight of the seeds. […] (DCP) or urea phosphate (UP). […] These percentages are % by weight, calculated from the seed weight.
The results of the emergence tests are shown in Table 2, wherein the numeric values indicate the emergence percentage.
Description for Rape: as §1
Description for Sunflower: as §1
Description for Wheat: as §1

Compound	Emergence percentage (Rape; fertilizer 8% of seed weight, fixing agent 2% of seed weight)	Combined effect in terms of plant emergence and phosphorus uptake (Wheat)	Emergence percentage (Wheat; [1]) [%]	Combined effect in terms of plant emergence and phosphorus uptake (Sunflower)	Emergence percentage (Sunflower; fertilizer 10% of seed weight, fixing agent 2% of seed weight) [%]	Emergence percentage (Pea; [1])	Combined effect in terms of plant emergence and phosphorus uptake (Tomato)	Emergence percentage (Tomato) [%]	Combined effect in terms of plant emergence and phosphorus uptake (Barley)	Emergence percentage (Barley; fertilizer 6% of seed weight, fixing agent 2% of seed weight) [%]	Suitability of phosphorus fertilizer as seed coating (emergence table) (Rape)	Suitability of phosphorus fertilizer as seed coating (emergence table) (Wheat)	Suitability of phosphorus fertilizer as seed coating (emergence table) (Sunflower)	Suitability of phosphorus fertilizer as seed coating (emergence table) (Pea)	Suitability of phosphorus fertilizer as seed coating (emergence table) (Barley)
O=P([O-])(O)O.[K+] [MKP, monopotassium phosphate]	85 (8%)	best combined effect	85	best combined effect	87	95 (4%)	best combined effect	80	best combined effect	93	–	–	–	–	–
NC(N)=O.O=P(O)(O)O [UP, urea phosphate]	–	–	–	–	–	–	best combined effect	82	–	–	Not suitable	Not suitable	Not suitable	Not suitable	Not suitable
